From patent publication US4933104A, “Anthraquinone derivative as a dichroic dye for a liquid-crystal material, liquid-crystal material and an electrooptical device” (priority 1986, dated 1990)
Where “and” joins values, the source holds several entries; their conditions need not be identical. Identical values can stand only once.

Legend:
Assay type in all cases: physicochemical
[1] = limiting solubility in liquid-crystalline mixtures at 20° C.; conditions: for Solubility (limiting), known derivatives: Table 6, derivatives of SU 1089084
[2] = λmax of the long-wave absorption band of the dye; conditions: Table 1 / Examples; several values = several maxima
Description: (§1) Table 1 given below lists the values of negative dichroism of the anthraquinone derivative of general formula /1/ for examples 1-30 in a liquid-crystalline mixture ZK-807; Table 2 illustrates physico-chemical characteristics, and Table 3--limiting solubility in liquid-crystalline mixtures (ZK-807, ZLI-1840, 3010, SP-586, ZK-1282) at 20° C.

[3] = negative dichroism S in a liquid-crystalline mixture; conditions: liquid-crystalline mixture ZK-807
Description: as §1

[4] = λmax of the long-wave absorption band of the dye; conditions: Table 7; two values = two maxima
Description: A weighed sample of one or several anthraquinone derivatives of general formula /1/ is dissolved upon heating to 60° C. in a liquid-crystalmatrix and then cooled to 20° C.

CCCCCCc1ccc(C(=O)Nc2cc(CCCCC)c(O)c3c2C(=O)c2c(NC(=O)c4ccc(CCCCCC)cc4)cc(CCCCC)c(OC(=O)c4ccc(CCCCCC)cc4)c2C3=O)cc1 [Compound 26]
Solubility (limiting) ([1]; 3010, 20° C.): 1.0 mass %
Solubility (limiting) ([1]; ZK-807, 20° C.): 2.9 mass %
Solubility (limiting) ([1]; ZK-1282, 20° C.): 0.7 mass %
Solubility (limiting) ([1]; ZLI-1840, 20° C.): 1.1 mass %
λmax [2]: 542 nm
negative dichroism S [3]: -0.31

CCCCC[C@H]1CC[C@H](c2ccc(C(=O)Nc3ccc(O)c4c3C(=O)c3c(NC(=O)c5ccc([C@H]6CC[C@H](CCCCC)CC6)cc5)cc(C)c(O)c3C4=O)cc2)CC1 [Compound 27, 1,8-Bis-4-(trans-4-amylcyclohexyl)benzamido-3-methyl-4,5-dioxyanthraquinone]
Solubility (limiting) ([1]; 3010, 20° C.): 1.0 mass %
Solubility (limiting) ([1]; ZK-807, 20° C.): 1.0 mass %
Solubility (limiting) ([1]; ZK-1282, 20° C.): 1.0 mass %
Solubility (limiting) ([1]; ZLI-1840, 20° C.): 1.0 mass %
λmax [2]: 562 nm and 603 nm
negative dichroism S [3]: -0.33

CCCCCC1CCC(c2ccc(C(=O)Nc3ccc(O)c4c3C(=O)c3c(NC(=O)c5ccc(C6CCC(CCCCC)CC6)cc5)cc(CCCC)c(O)c3C4=O)cc2)CC1 (stereo not shown) [Compound 28]
Solubility (limiting) ([1]; 3010, 20° C.): 1.1 mass %
Solubility (limiting) ([1]; SP-586, 20° C.): 0.8 mass %
Solubility (limiting) ([1]; ZK-807, 20° C.): 0.6 mass %
Solubility (limiting) ([1]; ZK-1282, 20° C.): 1.0 mass %
Solubility (limiting) ([1]; ZLI-1840, 20° C.): 1.0 mass %
λmax [2]: 564 nm and 605 nm
negative dichroism S [3]: -0.32

CCCCC[C@H]1CC[C@H](c2ccc(C(=O)Nc3cc(CCCC)c(O)c4c3C(=O)c3c(NC(=O)c5ccc([C@H]6CC[C@H](CCCCC)CC6)cc5)cc(CCCC)c(O)c3C4=O)cc2)CC1 [Compound 29, 1,8-Bis-4-(trans-4-amylcyclohexyl)benzamido-3,6-dibutyl-4,5-dioxyanthraquinone]
Solubility (limiting) ([1]; 3010, 20° C.): 1.0 mass %
Solubility (limiting) ([1]; ZK-807, 20° C.): 1.0 mass %
Solubility (limiting) ([1]; ZK-1282, 20° C.): 1.0 mass %
Solubility (limiting) ([1]; ZLI-1840, 20° C.): 1.0 mass %
λmax [2]: 563 nm and 606 nm
negative dichroism S [3]: -0.32

CCCCc1ccc(C(=O)Nc2ccc(NC(=O)c3ccc(CCCC)cc3)c3c2C(=O)c2ccccc2C3=O)cc1 [No. 3, Table 6, reference compound]
Solubility (limiting), known derivatives ([1]; ZK-807, 20° C.): 2.0 mass %
Solubility (limiting), known derivatives ([1]; ZLI-1840, 20° C.): 0.3 mass %
λmax, known derivatives [4]: 508 nm

CCCCCCc1ccc(C(=O)Nc2ccc(NC(=O)c3ccc(CCCCCC)cc3)c3c2C(=O)c2ccccc2C3=O)cc1 [No. 4, Table 6, reference compound]
Solubility (limiting), known derivatives ([1]; ZK-807, 20° C.): 2.3 mass %
Solubility (limiting), known derivatives ([1]; ZLI-1840, 20° C.): 0.6 mass %
λmax, known derivatives [4]: 512 nm

CCCCCCc1ccc(C(=O)Nc2ccc(OC(=O)c3ccc(CCCCCC)cc3)c3c2C(=O)c2c(NC(=O)c4ccc(CCCCCC)cc4)ccc(OC(=O)c4ccc(CCCCCC)cc4)c2C3=O)cc1 [No. 5, Table 6, reference compound]
Solubility (limiting), known derivatives ([1]; ZK-807, 20° C.): 0.5 mass %
Solubility (limiting), known derivatives ([1]; ZLI-1840, 20° C.): 0.1 mass %
λmax, known derivatives [4]: 468 nm

CCCCc1ccc(C(=O)Nc2ccc(OC(=O)c3ccc(CCCC)cc3)c3c2C(=O)c2c(NC(=O)c4ccc(CCCC)cc4)ccc(OC(=O)c4ccc(CCCC)cc4)c2C3=O)cc1 [No. 6, Table 6, reference compound]
Solubility (limiting), known derivatives ([1]; ZK-807, 20° C.): 0.5 mass %
λmax, known derivatives [4]: 470 nm

CCCCc1ccc(C(=O)Nc2ccc(O)c3c2C(=O)c2c(NC(=O)c4ccc(CCCC)cc4)ccc(O)c2C3=O)cc1 [No. 7, Table 6, reference compound]
Solubility (limiting), known derivatives ([1]; ZK-807, 20° C.): 0.1 mass %
λmax, known derivatives [4]: 560 nm

CCCCc1ccc(C(=O)Nc2ccc(O)c3c2C(=O)c2c(NC(=O)c4ccc(CCCC)cc4)ccc(OC(=O)c4ccc(CCCC)cc4)c2C3=O)cc1 [No. 8, Table 6, reference compound]
Solubility (limiting), known derivatives ([1]; ZK-807, 20° C.): 1.0 mass %
Solubility (limiting), known derivatives ([1]; ZLI-1840, 20° C.): 0.3 mass %
λmax, known derivatives [4]: 535 nm

CCCCCCc1ccc(C(=O)Nc2ccc(O)c3c2C(=O)c2c(NC(=O)c4ccc(CCCCCC)cc4)ccc(O)c2C3=O)cc1 [No. 9, Table 6, reference compound]
Solubility (limiting), known derivatives ([1]; ZK-807, 20° C.): 0.1 mass %
λmax, known derivatives [4]: 562 nm

CCCCCC1CCC(c2ccc(C(=O)Nc3ccc(O)c4c3C(=O)c3c(NC(=O)c5ccc(C6CCC(CCCCC)CC6)cc5)ccc(OC(=O)c5ccc(C6CCC(CCCCC)CC6)cc5)c3C4=O)cc2)CC1 (stereo not shown) [No. 10, Table 6, reference compound]
Solubility (limiting), known derivatives ([1]; ZK-807, 20° C.): 0.2 mass %
Solubility (limiting), known derivatives ([1]; ZLI-1840, 20° C.): 0.6 mass %
λmax, known derivatives [4]: 554 nm
